Measurements: ChEMBL document CHEMBL2016493, “Design, synthesis, synergistic antimicrobial activity and cytotoxicity of 4-aryl substituted 3,4-dihydropyrimidinones of curcumin” (Bioorg Med Chem Lett, 2012)
Active and inactive are the calls of the source. No cut-off for these calls is given here.

Assays:
Escherichia coli [1] = experiment: Antibacterial activity against Escherichia coli ATCC 35218 at 160 uM/ml after 24 hrs by kirby-bauer method; assay type: functional; details: ATCC 35218, 24 h, read-out: IZ
Escherichia coli [2] = experiment: Antibacterial activity against Escherichia coli ATCC 35218 at 80 uM/ml after 24 hrs by kirby-bauer method; assay type: functional; details: ATCC 35218, 24 h, read-out: IZ
Escherichia coli [3] = experiment: Antibacterial activity against Escherichia coli ATCC 35218 at 40 uM/ml after 24 hrs by kirby-bauer method; assay type: functional; details: ATCC 35218, 24 h, read-out: IZ
Escherichia coli [4] = experiment: Antibacterial activity against Escherichia coli ATCC 35218 at 20 uM/ml after 24 hrs by kirby-bauer method; assay type: functional; details: ATCC 35218, 24 h, read-out: IZ
[5] = system: Burkholderia pseudomallei; experiment: Antibacterial activity against Burkholderia pseudomallei NTCC 10274 at 160 uM/ml after 24 hrs by kirby-bauer method; assay type: functional; details: NTCC 10274, 24 h, read-out: IZ
[6] = system: Burkholderia pseudomallei; experiment: Antibacterial activity against Burkholderia pseudomallei NTCC 10274 at 80 uM/ml after 24 hrs by kirby-bauer method; assay type: functional; details: NTCC 10274, 24 h, read-out: IZ
[7] = system: Burkholderia pseudomallei; experiment: Antibacterial activity against Burkholderia pseudomallei NTCC 10274 at 40 uM/ml after 24 hrs by kirby-bauer method; assay type: functional; details: NTCC 10274, 24 h, read-out: IZ
[8] = system: Burkholderia pseudomallei; experiment: Antibacterial activity against Burkholderia pseudomallei NTCC 10274 at 20 uM/ml after 24 hrs by kirby-bauer method; assay type: functional; details: for zone of inhibition at 20 µM: NTCC 10274, 24 h, read-out: IZ
Pseudomonas aeruginosa [9] = experiment: Antibacterial activity against Pseudomonas aeruginosa ATCC 15499 at 160 uM/ml after 24 hrs by kirby-bauer method; assay type: functional; details: for zone of inhibition at 160 µM: ATCC 15499, 24 h, read-out: IZ
Pseudomonas aeruginosa [10] = experiment: Antibacterial activity against Pseudomonas aeruginosa ATCC 15499 at 80 uM/ml after 24 hrs by kirby-bauer method; assay type: functional; details: ATCC 15499, 24 h, read-out: IZ
Pseudomonas aeruginosa [11] = experiment: Antibacterial activity against Pseudomonas aeruginosa ATCC 15499 at 40 uM/ml after 24 hrs by kirby-bauer method; assay type: functional; details: ATCC 15499, 24 h, read-out: IZ
Pseudomonas aeruginosa [12] = experiment: Antibacterial activity against Pseudomonas aeruginosa ATCC 15499 at 20 uM/ml after 24 hrs by kirby-bauer method; assay type: functional; details: ATCC 15499, 24 h, read-out: IZ
Salmonella typhimurium [13] = experiment: Antibacterial activity against Salmonella typhimurium ATCC 23564 at 160 uM/ml after 24 hrs by kirby-bauer method; assay type: functional; details: for inhibition zone (IZ): Salmonella enterica subsp. enterica serovar Typhimurium
Staphylococcus aureus = experiment: Antibacterial activity against Staphylococcus aureus ATCC 11632 at 160 uM/ml after 24 hrs by kirby-bauer method; assay type: functional
Aspergillus niger [14] = experiment: Antifungal activity against Aspergillus niger MTCC 1108 at 160 uM/ml after 48 hrs by paper disc diffusion method; assay type: functional; details: for zone of inhibition at 160 µM: MTCC 1108, 48 h, read-out: IZ
Aspergillus niger [15] = experiment: Antifungal activity against Aspergillus niger MTCC 1108 at 80 uM/ml after 48 hrs by paper disc diffusion method; assay type: functional; details: MTCC 1108, 48 h, read-out: IZ
Aspergillus niger [16] = experiment: Antifungal activity against Aspergillus niger MTCC 1108 at 40 uM/ml after 48 hrs by paper disc diffusion method; assay type: functional
Aspergillus niger [17] = experiment: Antifungal activity against Aspergillus niger MTCC 1108 at 20 uM/ml after 48 hrs by paper disc diffusion method; assay type: functional
Aspergillus flavus [18] = experiment: Antifungal activity against Aspergillus flavus MTCC 1021 at 160 uM/ml after 48 hrs by paper disc diffusion method; assay type: functional; details: for zone of inhibition at 160 µM: MTCC 1021, 48 h, read-out: IZ
Aspergillus flavus [19] = experiment: Antifungal activity against Aspergillus flavus MTCC 1021 at 80 uM/ml after 48 hrs by paper disc diffusion method; assay type: functional
Aspergillus flavus [20] = experiment: Antifungal activity against Aspergillus flavus MTCC 1021 at 40 uM/ml after 48 hrs by paper disc diffusion method; assay type: functional
Aspergillus flavus [21] = experiment: Antifungal activity against Aspergillus flavus MTCC 1021 at 20 uM/ml after 48 hrs by paper disc diffusion method; assay type: functional
Curvularia lunata [22] = experiment: Antifungal activity against Curvularia lunata MTCC 581 at 160 uM/ml after 48 hrs by paper disc diffusion method; assay type: functional; details: MTCC 581, 48 h, read-out: IZ
Curvularia lunata [23] = experiment: Antifungal activity against Curvularia lunata MTCC 581 at 80 uM/ml after 48 hrs by paper disc diffusion method; assay type: functional; details: MTCC 581, 48 h, read-out: IZ
Curvularia lunata [24] = experiment: Antifungal activity against Curvularia lunata MTCC 581 at 40 uM/ml after 48 hrs by paper disc diffusion method; assay type: functional; details: MTCC 581, 48 h, read-out: IZ
Curvularia lunata [25] = experiment: Antifungal activity against Curvularia lunata MTCC 581 at 20 uM/ml after 48 hrs by paper disc diffusion method; assay type: functional; details: MTCC 581, 48 h, read-out: IZ
Trichoderma viride [26] = experiment: Antifungal activity against Trichoderma viride MTCC 1107 at 160 uM/ml after 48 hrs by paper disc diffusion method; assay type: functional; details: MTCC 1107, 48 h, read-out: IZ
Trichoderma viride [27] = experiment: Antifungal activity against Trichoderma viride MTCC 1107 at 80 uM/ml after 48 hrs by paper disc diffusion method; assay type: functional; details: MTCC 1107, 48 h, read-out: IZ
Trichoderma viride [28] = experiment: Antifungal activity against Trichoderma viride MTCC 1107 at 40 uM/ml after 48 hrs by paper disc diffusion method; assay type: functional; details: for zone of inhibition: MTCC 1107, 48 h, read-out: IZ
Trichoderma viride [29] = experiment: Antifungal activity against Trichoderma viride MTCC 1107 at 20 uM/ml after 48 hrs by paper disc diffusion method; assay type: functional; details: for zone of inhibition at 20 µM: MTCC 1107, 48 h, read-out: IZ
QG-56 = experiment: Cytotoxicity against human QG56 cells after 48 hrs by MTT assay; assay type: functional, cell-based
Salmonella typhimurium [30] = experiment: Antibacterial activity against Salmonella typhimurium ATCC 23564 at 80 uM/ml after 24 hrs by kirby-bauer method; assay type: functional, Salmonella enterica subsp. enterica serovar Typhimurium; details: Salmonella enterica, ATCC 23564, 24 h; read-out: IZ
Salmonella typhimurium [31] = experiment: Antibacterial activity against Salmonella typhimurium ATCC 23564 at 40 uM/ml after 24 hrs by kirby-bauer method; assay type: functional, Salmonella enterica subsp. enterica serovar Typhimurium; details: Salmonella enterica, ATCC 23564, 24 h; read-out: IZ
Salmonella typhimurium [32] = experiment: Antibacterial activity against Salmonella typhimurium ATCC 23564 at 20 uM/ml after 24 hrs by kirby-bauer method; assay type: functional, Salmonella enterica subsp. enterica serovar Typhimurium; details: Salmonella enterica, ATCC 23564, 24 h; read-out: IZ

Row | SMILES | zone of inhibition at 160 µM (Escherichia coli [1]) [mm] | zone of inhibition at 80 µM (Escherichia coli [2]) [mm] | zone of inhibition at 40 µM (Escherichia coli [3]) [mm] | zone of inhibition at 20 µM (Escherichia coli [4]) [mm] | zone of inhibition at 160 µM [5] [mm] | zone of inhibition at 80 µM [6] [mm] | zone of inhibition at 40 µM [7] [mm] | zone of inhibition at 160 µM (Pseudomonas aeruginosa [9]) [mm] | zone of inhibition at 80 µM (Pseudomonas aeruginosa [10]) [mm] | zone of inhibition at 40 µM (Pseudomonas aeruginosa [11]) [mm] | inhibition zone (IZ) (Staphylococcus aureus) | zone of inhibition at 160 µM (Curvularia lunata [22]) [mm] | zone of inhibition at 80 µM (Curvularia lunata [23]) [mm] | zone of inhibition at 40 µM (Curvularia lunata [24]) [mm] | zone of inhibition at 20 µM (Curvularia lunata [25]) [mm] | zone of inhibition at 160 µM (Trichoderma viride [26]) [mm] | zone of inhibition at 80 µM (Trichoderma viride [27]) [mm] | IC50 (QG-56) [uM/ml] | IC50 (HepG2) [uM/ml] | IC50 (HCT-116) [uM/ml] | other results
1 | COc1cc(/C=C/C(=O)C2=C(/C=C/c3ccc(O)c(OC)c3)NC(=O)NC2c2ccccc2O)ccc1O (stereo not drawn) | 22 | 19 | 18 | 15 | 19 | 13 | 11 | 24 | 21 | 19 | inactive | 23 | 21 | 20 | 17 | 11 | 9 | 100 | 100 | 100 | inhibition zone (IZ) [8]: inactive; zone of inhibition at 20 µM (Pseudomonas aeruginosa [12]): 18 mm; inhibition zone (IZ) (Salmonella typhimurium [13]): inactive; zone of inhibition at 160 µM (Aspergillus niger [14]): 13 mm; zone of inhibition at 80 µM (Aspergillus niger [15]): 11 mm; zone of inhibition at 40 µM (Aspergillus niger [16]; MTCC 1108, 48 h, read-out: IZ): 9 mm; inhibition zone (IZ) (Aspergillus niger [17]): inactive; zone of inhibition at 160 µM (Aspergillus flavus [18]): 9 mm; inhibition zone (IZ) (Aspergillus flavus [19]): inactive; inhibition zone (IZ) (Aspergillus flavus [20]): inactive; inhibition zone (IZ) (Aspergillus flavus [21]): inactive; inhibition zone (IZ) (Trichoderma viride [28]): inactive; inhibition zone (IZ) (Trichoderma viride [29]): inactive
2 | COc1cc(/C=C/C(=O)C2=C(/C=C/c3ccc(O)c(OC)c3)NC(=S)NC2c2ccccc2)ccc1O (stereo not drawn) | 21 | 18 | 14 | 12 | 18 | 16 | 13 | 18 | 17 | 14 | inactive | 26 | 23 | 21 | 18 | 24 | 21 | 50 | 50 | 100 | zone of inhibition at 20 µM [8]: 11 mm; zone of inhibition at 20 µM (Pseudomonas aeruginosa [12]): 12 mm; inhibition zone (IZ) (Salmonella typhimurium [13]): inactive; zone of inhibition at 160 µM (Aspergillus niger [14]): 16 mm; zone of inhibition at 80 µM (Aspergillus niger [15]): 14 mm; inhibition zone (IZ) (Aspergillus niger [16]): inactive; inhibition zone (IZ) (Aspergillus niger [17]): inactive; zone of inhibition at 160 µM (Aspergillus flavus [18]): 9 mm; inhibition zone (IZ) (Aspergillus flavus [19]): inactive; inhibition zone (IZ) (Aspergillus flavus [20]): inactive; inhibition zone (IZ) (Aspergillus flavus [21]): inactive; zone of inhibition (Trichoderma viride [28]): 21 mm; zone of inhibition at 20 µM (Trichoderma viride [29]): 18 mm
3 | COc1cc(/C=C/C(=O)C2=C(/C=C/c3ccc(O)c(OC)c3)NC(=O)NC2c2ccc(O)c(OC)c2)ccc1O (stereo not drawn) | 19 | 17 | 14 | 11 | 16 | 16 | 14 |  |  |  | inactive | 21 | 18 | 17 | 13 | 21 | 18 | 50 | 25 | 100 | zone of inhibition at 20 µM [8]: 10 mm; inhibition zone (IZ) (Pseudomonas aeruginosa [9]): inactive; zone of inhibition at 160 µM (Salmonella typhimurium [13]; Salmonella enterica, ATCC 23564, 24 h, read-out: IZ): 22 mm; zone of inhibition at 80 µM (Salmonella typhimurium [30]): 19 mm; zone of inhibition at 40 µM (Salmonella typhimurium [31]): 16 mm; zone of inhibition at 20 µM (Salmonella typhimurium [32]): 13 mm; inhibition zone (IZ) (Aspergillus niger [14]): inactive; inhibition zone (IZ) (Aspergillus flavus [18]): inactive; zone of inhibition (Trichoderma viride [28]): 16 mm; zone of inhibition at 20 µM (Trichoderma viride [29]): 15 mm
